Test results reported in patent publication US20110165183A1, “PIPERIDINE DERIVATIVES AS JAK3 INHIBITORS” (BioCryst Pharmaceuticals, Inc., priority 2008, published 2011).

melting point	SMILES
126.9 °C	C[C@@H]1CCNC[C@@H]1N(C)c1nccc2[nH]ccc12 [Example 18, N-Methyl-N-((3R,4R)-4-methylpiperidin-3-yl)-1H-pyrrolo[3,2-c]pyridin-4-amine]
103.4 °C	C[C@@H]1CCN(c2ncnn3cccc23)C[C@@H]1N(C)c1ncnn2cccc12 [Example 17, N-Methyl-N-((3R,4R)-4-methyl-1-(pyrrolo[1,2-f][1,2,4]triazin-4-yl)piperidin-3-yl)pyrrolo[1,2-f][1,2,4]triazin-4-amine]
119.3 °C	Cc1cc(N(C)[C@H]2CN(C(=O)CC#N)CC[C@H]2C)n2ncnc2n1 [Example 8, 3-((3R,4R)-4-Methyl-3-(methyl(5-methyl-1,2,41-triazolo[1,5-a]pyrimidin-7-yl)amino)piperidin-1-yl)-3-oxopropanenitrile]
74.3 °C	C[C@@H]1CCN(C(=O)CC#N)C[C@@H]1N(C)c1ncnc2sccc12 [Example 9, 3-((3R,4R)-4-methyl-3-(methyl(thieno[2,3-d]pyrimidin-4-yl)amino)piperidin-1-yl)-3-oxopropanenitrile]

More lines, now with the values behind:

SMILES	melting point
C[C@@H]1CCN(C(=O)CC#N)C[C@@H]1N(C)c1ncnn2ccnc12 [Example 4, 3-((3R,4R)-3-(Imidazo[1,2-f][1,2,4]triazin-4-yl(methyl)amino)-4-methylpiperidin-1-yl)-3-oxopropanenitrile]	72 °C
C[C@@H]1CCN(C(=O)CC#N)C[C@@H]1N(C)c1ncnc2ccoc12 [Example 2, 3-((3R,4R)-3-(furo[3,2-d]pyrimidin-4-yl(methyl)amino)-4-methylpiperidin-1-yl)-3-oxopropanenitrile]	107.7 °C
